Reference: patent US12533095B1, “Airway mucus scoring system” (The Regents of the University of California, priority 2016, dated 2026)

Columns and labels:
[1] = Maximum bronchodilator reversibility test (MBRT); type: in vivo, human
Procedure: (§1) Treatment response to bronchodilators and systemic corticosteroids: Maximum Bronchodilator Reversibility tests (MBRT's) were performed on baseline visits 2 and 3. MBRT was determined by measuring spirometry before and after 360-720 meg of albuterol sulfate delivered by metered-dose inhaler. Patients also underwent a systemic corticosteroid response test (SCRT), which involved an intramuscular injection of triamcinolone acetonide (40 mg) on visit 2 and repeat characterization including MBRT and blood draw on visit 3 (2-4 weeks later). Maximum bronchodilator reversibility test (MBRT): Subjects were asked to hold their bronchodilator medications prior to spirometry testing. Following baseline spirometry, 4 puffs of albuterol (360 mcg) were administered. Spirometry was then repeated 15 minutes later. If the change in FEV1 from the spirometry maneuver performed after 4 puffs was greater than 5%, an additional 2 puffs of albuterol (180 mcg) were then administered and spirometry was repeated again 15 minutes later. If the change in FEV1 after 6 puffs was greater than 5%, an additional 2 puffs of albuterol were administered with repeat spirometry after an additional 15 minutes. If the change was less than 5% after 4 or 6 puffs of albuterol, the procedure was stopped and the last maneuver was taken to be the highest achievable measure. No more than 8 puffs of albuterol were administered as part of the MBRT procedure. MBRT was measured on baseline visits 2 and 3 (FIG. 5).

[2] = Systemic corticosteroid responsiveness test (SCRT); type: in vivo, human
Procedure: Systemic Corticosteroid Responsiveness Test (SCRT): Patients were given an intramuscular injection of triamcinolone acetonide (40 mg) following complete characterization on visit 2. Repeat characterization post steroid injection (excluding MDCT), was carried out on visit 3 (2-4 weeks later) (FIG. 5). Treatment response to bronchodilators and systemic corticosteroids: Maximum Bronchodilator Reversibility tests (MBRT's) were performed on baseline visits 2 and 3. MBRT was determined by measuring spirometry before and after 360-720 meg of albuterol sulfate delivered by metered-dose inhaler. Patients also underwent a systemic corticosteroid response test (SCRT), which involved an intramuscular injection of triamcinolone acetonide (40 mg) on visit 2 and repeat characterization including MBRT and blood draw on visit 3 (2-4 weeks later). Induced Sputum: Sputum induction was done on visits 2 and 3. For safety, induced sputum was only collected from patients whose FEV1 was >50% predicted after albuterol pretreatment (360 μg). Total and differential cell counts were quantified in a central laboratory (Wake Forest University) using methods previously described^5,6. Gene expression for type 2 cytokines [interleukin (IL)-4, IL-5, and IL-13] and for airway gel-forming mucins (MUC5AC, MUC5B) were measured in RNA isolated from induced sputum cell pellets using real-time Taqman-based quantitative PCR (qPCR) 7 as described herein (including Table 3). RNA isolation and qPCR were done in a central laboratory (University of California at San Francisco).

[3] = Bronchodilator reversibility testing repeated after intramuscular corticosteroid (combined SCRT and MBRT); type: in vivo, human; settings: patients with high mucus scores; bronchodilator reversibility testing repeated after intramuscular steroid
Procedure: as §1, with “Systemic Corticosteroid Responsiveness Test (SCRT): Patients were given an intramuscular injection of triamcinolone acetonide (40 mg) following complete characterization on visit 2. Repeat characterization post steroid injection (excluding MDCT), was carried out on visit 3 (2-4 weeks later) (FIG. 5). Treatment” for “Treatment”, “If the change in FEV1 after 6 puffs was greater than 5%, an additional 2 puffs of albuterol were administered with repeat spirometry after an additional 15 minutes. If the change was less than 5% after 4 or 6 puffs of albuterol, the procedure was stopped and the last maneuver was taken to be the highest achievable measure. No more than 8 puffs of albuterol were administered as part of the MBRT procedure.” left out

[4] = system: primary human airway epithelial cells; experiment: Apical secretion of Eotaxin-3 (CCL26) at air liquid interface; type: cell-based; settings: 10 ng/ml in basolateral media for 4 days; vs untreated control (FIG. 11E)
From the text: Apical secretion of Eotaxin-3 (CCL26): Human airway epithelial cells (AECs) were isolated from tracheas collected from cadaveric lung donors from the California Donor Network as a part of a separate study (Gordon et al., Proc Natl Acad Sci USA. 113, 8765-8770. doi: 8710.1073/pnas.1601914113. Epub 160191216 Jul. 1601914118. (2016)). Cells were expanded in 5% FCS in DMEM/F12 supplemented with a rho kinase inhibitor (Y-27632 SellekChem) to promote proliferation (Liu et al., Am J Pathol. 180, 599-607. doi: 510.1016/j.ajpath.2011.1010.1036. Epub 211 Dec. 1018. (2012)). Once cells reached 90% confluency flasks were washed and cells trypsinized with TrypLE (Gibco). Subconfluent cells were plated to submerged transwell inserts, using the modified Schlegel culture conditions previously described (Chu et al., Gene Ther. 22, 822-829. doi: 810.1038/gt.2015.1053. Epub 2015 July 1032. (2015)). Once cells reached confluence, the cultures were taken to air-liquid interface (ALI) in PnuemaCult Maintenance media (StemCell Technologies) and maintained for 21-days. At day 21, cells were treated with 10 ng/ml recombinant human IL-13 (R&D systems) in the basolateral media for 4 days. To measure eotaxins secreted at the apical surface of ALI cultures. 300 μL warmed PBS was added to the surface of the cells. […]

eosinophils = experiment: Cysteine cross-linking assay (BODIPY labeled cysteine exposed to eosinophils); type: cell-based, human; settings: unstimulated and PMA-stimulated eosinophils; vs catalase-free control (FIG. 11H)
Procedure: Eosinophil Isolation and stimulation of respiratory burst: Eosinophils were purified from the peripheral blood of 4 atopic asthmatic subjects (age 48±23 years). Each subject donated 100 mL of blood on one or more occasions. All subjects signed consent forms and usage was approved by the UCSF Committee on Human Research. Eosinophils were isolated from whole blood using a three-step method in which we first pelleted the cells, followed by water lysis to remove red blood cells and finally eosinophils were purified using immunomagnetic beads (Human Eosinophil Isolation kit. Miltenyi Biotec). Briefly, whole blood was collected in EDTA (purple-top) tubs and pelleted at 1500 g for 15 minutes at 4° C. The plasma on top was removed and cell pellet retained for two cycles of water lysis. […]
Cysteine cross-linking assay: To explore cystine formation generated by eosinophil stimulation, BODIPY FL L-cysteine was generated from […] BODIPY FL L-Cystine (ThermoFisher Scientific) in Tyrode's Salts by reduction with one quarter volume packed TCEP-Gel (ThermoFisher Scientific) for 1 hour at 25° C. The reaction yields an 8 to 10-fold increase in fluorescence at 490 nm/520 nm Ex/Em. […] The decrease in fluorescence at 490 nm/520 nm Ex/Em was monitored over 2 hours at 37° C. on a Synergy H1 plate reader (BioTek Instruments) with the addition of 50,000 peripheral blood eosinophils in 100 μl Tyrode's Salts. […]

CC(C)(C)NCC(O)c1ccc(O)c(CO)c1 (stereo not shown) [albuterol]
patients with residual abnormalities in FEV1 (FEV1 <80% predicted) following maximum bronchodilator testing ([1]; asthma patients with a high mucus score): 73%
patients with residual FEV1 abnormalities after maximum bronchodilation testing ([1]; asthma patients with a zero-mucus score): 20%
mean post-bronchodilator FEV1 in the high mucus group lower than in the zero-mucus group ([1]; asthma patients, inhaled albuterol (540-720 mcg), high vs zero mucus group): 24%

CC1(C)O[C@@H]2C[C@H]3[C@@H]4CCC5=CC(=O)C=C[C@]5(C)[C@@]4(F)[C@@H](O)C[C@]3(C)[C@]2(C(=O)CO)O1 [triamcinolone acetonide]
patients with residual abnormalities in FEV1 following the SCRT ([2]; asthma patients with high mucus scores, intramuscular 40 mg): 72%
patients with residual FEV1 abnormalities following the SCRT ([2]; asthma patients with zero mucus scores, intramuscular 40 mg): 28%
mean post steroid FEV1 lower in the high-mucus group than the zero-mucus group ([2]; asthma patients, intramuscular 40 mg, high vs zero mucus group): 21%
Sputum eosinophil % following treatment with intramuscular steroid ([2]; patients with a high mucus score (FIG. 10A)): remains significantly increased
Gene expression for interleukin 13 in sputum cells following treatment with intramuscular steroid ([2]; patients with a high mucus score (FIG. 10B)): remains significantly increased
Gene expression for interleukin 5 in sputum cells following treatment with intramuscular steroid ([2]; patients with a high mucus score (FIG. 10C)): remains significantly increased
FEV1% predicted post steroid treatment ([2]; subjects with a high mucus score (FIG. 4B)): remained significantly decreased
proportion of patients whose FEV1 remained below 80% [3]: half

IL-13: recombinant human IL-13 (R&D systems) used to stimulate airway epithelial cells
concentration of eotaxin-3 in apical mucus secretions [4]: marked increases

catalase
cystine dimer formation (eosinophils): significantly decreased
